Experimental data taken from patent US20230312631A1, “EXTRUSION PROCESS FOR THE PREPARATION OF A SOLID ALLULOSE COMPOSITION” (SAVANNA INGREDIENTS GMBH, priority 2020, published 2023).
Read-outs that look alike come from different tables or passages of the source.

Assays:
[1] = cited from earlier work
[2] = Preliminary tests to estimate supersaturation and undercooling of carbohydrates in water; assay type: physicochemical
Excerpt: Therefore, preliminary tests were made in order to estimate supersaturation and overcooling of various carbohydrates in water under different conditions.

[3] = cited from earlier work; remark: listed apart in the source
[4] = Mutarotation: angle of rotation over time after dissolving allulose in water (polarimeter); assay type: physicochemical; conditions: 23° C.; for angle of rotation: desalted water, DS about 26 wt.-%
Method: Crystalline allulose was dissolved in water (DS 26 wt.-%). Quickly afterwards, the sample was placed in a polarimeter and the angle of rotation was read off at regular intervals ([…], 23° C.). From this, the angle of rotation was then plotted over time (see FIG. 1). 74.30 g of water and 26.05 g of crystalline allulose were mixed. The mixture was briefly stirred with a stir bar until the allulose was completely dissolved. Then a sample was placed in the polarimeter and the angle of rotation of the same sample was measured at regular intervals. There were approximately 5 minutes between the addition of the allulose and the first measured value (0 min).
Mutarotation of solid allulose obtained in accordance with the present invention was compared to mutarotation of highly crystalline allulose. For this purpose, solutions at a dry substance content of about DS 26 wt.-% were prepared from powdery compositions each having a particle size within the range of from 100 to 200 μm (sieve fraction).
15.61 g of powdery crystalline allulose (comparative) of grain size 100-200 μm were dissolved at 23° C. in 47.6 g desalted water in a 500 mL beaker. The angle of rotation was measured over time with a polarimeter.
13.00 g of extruded allulose (inventive) of grain size 100-200 μm were dissolved at 23° C. in 37.07 g desalted water in a 500 mL beaker. The angle of rotation was measured over time with a polarimeter.
For the sake of better comparability, the specific angle of rotation [(° *ml)/(dm*g)] was calculated for each measured value. The results are visualized in FIG. 2.

[5] = cited from earlier work; remark: listed apart in the source
[6] = mass fraction 70% prior to evaporation, temperature 150° C.
[7] = mass fraction 80% prior to evaporation, temperature 190° C.
[8] = in water, 13C NMR (du Penhoat et al.)
[9] = mass fraction 90%, temperature 58° C.
[10] = mass fraction 80%, temperature 149° C.

In the case of `O=C(CO)C(O)C(O)C(O)CO` [allulose, D-allulose], the solubility ([1]; 25° C.) is listed as 291 g per 100 g water, the solubility in water ([1]; 25° C.) is listed as 291 g in 100 g of water and the “solubility in water expressed as mass fraction” value ([1]; 25° C.) is listed as 74%. For the same molecule, the solubility in water ([1]; 50° C.) was 489 g in 100 g of water, the “solubility in water expressed as mass fraction” value ([1]; 50° C.) was 83% and the supersaturation [2, 6] was −27%. The undercooling [2, 6] was −54K, the supersaturation [2, 7] was −19% and the undercooling [2, 7] was −94K. The “rate constant k of development of open-chain carbonyl-form in solution (first-order)” value ([3]; absorbance at 280 nm after dissolution) was 4.44 ms^−1, the “equilibrium content of carbonyl-form” value ([3]; in solution) was “about 0.2%” and the “time until the angle of rotation remains constant (chiral species in solution equilibrated)” value ([4]; 26.05 g crystalline allulose in 74.30 g water, DS 26 wt.-%, FIG. 1) was “more than 1 hour”. For the same molecule, the “percent composition of anomeric forms: keto form” value ([5]; in D2O at 303.15 K) was 0.2%, the “percent composition of anomeric forms: α-furanose” value ([5]; in D2O at 303.15 K) was 39% and the “percent composition of anomeric forms: α-pyranose” value ([5]; in D2O at 303.15 K) was 22%. For the same molecule, the “percent composition of anomeric forms: β-furanose” value ([5]; in D2O at 303.15 K) was 15%, the “percent composition of anomeric forms: β-pyranose” value ([5]; in D2O at 303.15 K) was 24% and the “equilibrium composition: α-furanose” value [5, 8] was 37%. For the same molecule, the “equilibrium composition: α-pyranose” value [5, 8] was roughly 26%, the “equilibrium composition: β-furanose” value [5, 8] was roughly 11% and the “equilibrium composition: β-pyranose” value [5, 8] was roughly 26%.

Work on `OC[C@H]1O[C@H](OC[C@H]2OC(O)(CO)[C@@H](O)[C@@H]2O)[C@H](O)[C@@H](O)[C@@H]1O` (stereo partly drawn) [isomaltulose] yielded a supersaturation [2, 9] of 35% and an undercooling [2, 9] of 62K.

For `OC[C@@]1(O)OC[C@@H](O)[C@@H](O)[C@H]1O` [β-D-psicopyranose], the “Mutarotation [α]” value ([3]; in water) is given as “about −85 deg dm^−1 cm^3”.

Work on `OC[C@H]1O[C@@](CO)(O[C@H]2O[C@H](CO)[C@@H](O)[C@H](O)[C@H]2O)[C@@H](O)[C@@H]1O` [sucrose] yielded a supersaturation [2, 10] of −14% and an undercooling [2, 10] of 37K.

Work on `O=C(CO)C(O)C(O)C(O)CO` (stereo not drawn) [comparative, allulose] yielded an angle of rotation ([4]; time 0 min) of −33.4 °, an angle of rotation ([4]; time 0.5 min) of −31.1 ° and an angle of rotation ([4]; time 1 min) of −29 °. The angle of rotation ([4]; time 1.5 min) was −27 °, the angle of rotation ([4]; time 2 min) was −25.1 ° and the angle of rotation ([4]; time 2.5 min) was −23.35 °. The angle of rotation ([4]; time 3 min) was −21.7 °, the angle of rotation ([4]; time 3.5 min) was −20.13 ° and the angle of rotation ([4]; time 4 min) was −18.71 °. For the same molecule, the angle of rotation ([4]; time 4.5 min) was −17.36 °, the angle of rotation ([4]; time 5 min) was −16.1 ° and the angle of rotation ([4]; time 5.5 min) was −14.91 °. It also gave an angle of rotation ([4]; time 6 min) of −13.8 °, an angle of rotation ([4]; time 6.5 min) of −12.78 ° and an angle of rotation ([4]; time 7 min) of −11.81 °. For the same molecule, the angle of rotation ([4]; time 7.5 min) was −10.9 °, the angle of rotation ([4]; time 8 min) was −10.05 ° and the angle of rotation ([4]; time 8.5 min) was −9.25 °. It also gave an angle of rotation ([4]; time 9 min) of −8.51 °, an angle of rotation ([4]; time 9.5 min) of −7.81 ° and an angle of rotation ([4]; time 10 min) of −7.18 °. The angle of rotation ([4]; time 10.5 min) was −6.57 °, the angle of rotation ([4]; time 11 min) was −6 ° and the angle of rotation ([4]; time 11.5 min) was −5.47 °. For the same molecule, the angle of rotation ([4]; time 12 min) was −4.98 °, the angle of rotation ([4]; time 12.5 min) was −4.51 ° and the angle of rotation ([4]; time 13 min) was −4.08 °. It also gave an angle of rotation ([4]; time 13.5 min) of −3.67 °, an angle of rotation ([4]; time 14 min) of −3.29 ° and an angle of rotation ([4]; time 14.5 min) of −2.93 °. It also gave an angle of rotation ([4]; time 15 min) of −2.6 °, an angle of rotation ([4]; time 15.5 min) of −2.29 ° and an angle of rotation ([4]; time 16 min) of −2 °. It also gave an angle of rotation ([4]; time 16.5 min) of −1.72 °, an angle of rotation ([4]; time 17 min) of −1.47 ° and an angle of rotation ([4]; time 17.5 min) of −1.23 °. The angle of rotation ([4]; time 18 min) was −1 °, the angle of rotation ([4]; time 18.5 min) was −0.8 ° and the angle of rotation ([4]; time 19 min) was −0.6 °. It also gave an angle of rotation ([4]; time 19.5 min) of −0.41 °, an angle of rotation ([4]; time 20 min) of −0.24 ° and an angle of rotation ([4]; time 20.5 min) of −0.08 °. The angle of rotation ([4]; time 21 min) was 0.07 °, the angle of rotation ([4]; time 21.5 min) was 0.22 ° and the angle of rotation ([4]; time 22 min) was 0.35 °. It also gave an angle of rotation ([4]; time 22.5 min) of 0.47 °, an angle of rotation ([4]; time 23 min) of 0.59 ° and an angle of rotation ([4]; time 23.5 min) of 0.7 °. For the same molecule, the angle of rotation ([4]; time 24 min) was 0.8 °, the angle of rotation ([4]; time 24.5 min) was 0.9 ° and the angle of rotation ([4]; time 25 min) was 0.99 °. The angle of rotation ([4]; time 25.5 min) was 1.07 °, the angle of rotation ([4]; time 26 min) was 1.15 ° and the angle of rotation ([4]; time 26.5 min) was 1.22 °. The angle of rotation ([4]; time 27 min) was 1.29 °, the angle of rotation ([4]; time 27.5 min) was 1.36 ° and the angle of rotation ([4]; time 28 min) was 1.42 °. It also gave an angle of rotation ([4]; time 28.5 min) of 1.48 °, an angle of rotation ([4]; time 29 min) of 1.53 ° and an angle of rotation ([4]; time 29.5 min) of 1.58 °. The angle of rotation ([4]; time 30 min) was 1.63 °, the angle of rotation ([4]; time 35 min) was 1.96 ° and the angle of rotation ([4]; time 40 min) was 2.13 °. It also gave an angle of rotation ([4]; time 45 min) of 2.22 °, an angle of rotation ([4]; time 50 min) of 2.26 ° and an angle of rotation ([4]; time 55 min) of 2.29 °. For the same molecule, the angle of rotation ([4]; time 60 min) was 2.30 °.
